The values that follow come from patent US12187709B2 (Genentech, Inc., priority 2021, dated 2025).

One assay concerns the target Cbl-b (Homo sapiens (Human), UniProt Q13191). The assay is described as follows: Cbl-b LCK Ub TR-FRET assay (Cbl-b Lck HTRF). It counts as biochemical. The following applies: for IC50: Cbl-b LCK Ub TR-FRET; for fold-selectivity (Cbl-b over C-cbl): ratio C-cbl Lck HTRF IC50 / Cbl-b Lck HTRF IC50. A digest of the protocol: (§1)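 Signal is read once the detection mix has stood 20 min at ambient temperature. Curves are anchored by DMSO as maximum and by omission of LCK as minimum.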
For orientation: Time-resolved FRET reads energy transfer from a long-lived donor to a nearby acceptor.

The next assay concerns the target c-Cbl (Homo sapiens (Human), UniProt P22681). Put plainly: C-Cbl LCK Ub TR-FRET assay (C-cbl Lck HTRF). The assay is classed as biochemical. A digest of the protocol: as §1
Assay [1] addresses Human Cbl-b (residues 40-426) (Homo sapiens (Human), UniProt Q13191). The assay is described as follows: Cbl-b SPR assay. It counts as binding. The following applies: for Fold of selectivity: C-cbl SPR Kd vs Cbl-b SPR Kd; for Kd: SPR, 20° C. A digest of the protocol:
(§2)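 Protein captured at 1300-1500 RU; compounds run as 6-point 2-fold series in multi-cycle kinetics (60 s contact, 40 μl/min, 120-1200 s dissociation), fitted 1:1. For slow binders, kd came from chaser-compound occupancy over time, fixed in a single-cycle fit (5 concentrations, top 500 nM).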
In general terms: In SPR one partner is held on a chip, and binding of the other changes the refractive index at the surface.

A further assay concerns the target c-Cbl (residues 47-435) (Homo sapiens (Human), UniProt P22681). Put plainly: c-Cbl SPR assay. The assay is classed as binding. The conditions noted are these: 20° C. A digest of the protocol:
as §2

Chain of c-Cbl (residues 47-435) (P22681 47-435): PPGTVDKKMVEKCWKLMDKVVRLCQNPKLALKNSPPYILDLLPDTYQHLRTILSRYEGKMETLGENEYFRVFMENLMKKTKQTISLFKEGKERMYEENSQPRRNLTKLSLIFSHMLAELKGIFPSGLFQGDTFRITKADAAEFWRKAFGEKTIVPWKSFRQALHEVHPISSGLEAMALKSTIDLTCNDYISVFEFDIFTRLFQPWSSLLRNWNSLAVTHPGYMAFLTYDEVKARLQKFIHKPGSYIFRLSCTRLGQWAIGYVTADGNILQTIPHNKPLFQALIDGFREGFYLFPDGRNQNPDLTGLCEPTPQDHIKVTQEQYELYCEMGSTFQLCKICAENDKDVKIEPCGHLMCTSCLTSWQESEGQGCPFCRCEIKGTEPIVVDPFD
Chain of c-Cbl (P22681 47-435): as above
Chain of Cbl-b (Q13191 40-426): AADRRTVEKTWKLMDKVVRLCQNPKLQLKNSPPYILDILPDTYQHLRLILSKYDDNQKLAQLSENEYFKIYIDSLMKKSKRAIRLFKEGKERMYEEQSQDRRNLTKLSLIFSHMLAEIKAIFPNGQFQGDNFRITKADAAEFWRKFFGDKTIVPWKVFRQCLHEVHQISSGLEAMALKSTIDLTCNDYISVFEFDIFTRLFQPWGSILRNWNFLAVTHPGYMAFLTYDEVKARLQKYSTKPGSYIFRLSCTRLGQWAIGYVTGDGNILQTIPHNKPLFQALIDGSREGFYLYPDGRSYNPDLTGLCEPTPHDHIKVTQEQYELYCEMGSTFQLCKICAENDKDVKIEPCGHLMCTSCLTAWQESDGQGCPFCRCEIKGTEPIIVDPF
Chain of Human Cbl-b (residues 40-426) (Q13191 40-426): as above

Regarding `C=C1CC(c2cccc(N3Cc4c(cc(CNC5(C)CCC5)cc4C(F)(F)F)C3=O)c2)(c2nncn2C)C1` [Compound 18, 2-(3-(1-(4-methyl-4H-1,2,4-triazol-3-yl)-3-methylenecyclobutyl)phenyl)-6-(((1-methylcyclobutyl)amino)methyl)-4-(trifluoromethyl)-isoindolin-1-one], at Cbl-b, the IC50 stood at 7.9 nM and the “fold-selectivity (Cbl-b over C-cbl)” value is listed as “(0.97x)”. At c-Cbl, this compound gave an IC50 of 7.7 nM. Moreover, in assay [1], the Fold of selectivity was found to be 3.7× and binding was characterised by a dissociation constant (Kd) of 1.5 nM. Further, the Kd at c-Cbl (residues 47-435) worked out at 5.6 nM.
Take `Cn1cnnc1C1(c2cccc(N3Cc4c(cc(CNC5(C)CCC5)cc4C(F)(F)F)C3=O)c2)CC(=O)C1` [Compound 19, 2-(3-(1-(4-methyl-4H-1,2,4-triazol-3-yl)-3-oxocyclobutyl)phenyl)-6-(((1-methylcyclobutyl)-amino)methyl)-4-(trifluoromethyl)isoindolin-1-one]: at Cbl-b, the IC50 amounted to 88 nM and the “fold-selectivity (Cbl-b over C-cbl)” value is listed as “(2.0x)”. This compound also came in with an IC50 against c-Cbl of 176 nM. Also, in assay [1], the Fold of selectivity is listed as 5.0× and the Kd is 40 nM. For the same compound, the Kd on c-Cbl (residues 47-435) is 200 nM.
For `Cn1cnnc1[C@]1(c2cccc(N3Cc4c(cc(CNC5(C)CCC5)cc4C(F)(F)F)C3=O)c2)C[C@@H](O)C1` [Compound 20, 2-(3-((1r,3r)-3-hydroxy-1-(4-methyl-4H-1,2,4-triazol-3-yl)cyclobutyl)phenyl)-6-(((1-methylcyclobutyl)amino)methyl)-4-(trifluoromethyl)isoindolin-1-one], on Cbl-b, half-maximal inhibition (IC50) required 170 nM and the “fold-selectivity (Cbl-b over C-cbl)” value is recorded as “(2.3x)”. At c-Cbl, this compound displayed an IC50 of 390 nM. In assay [1], the Fold of selectivity is listed as 4.4× and the affinity, expressed as Kd, was 80 nM. For the same compound, the affinity at c-Cbl (residues 47-435), expressed as Kd, was 350 nM.
Take `Cn1cnnc1[C@]1(c2cccc(N3Cc4c(cc(CNC5(C)CCC5)cc4C(F)(F)F)C3=O)c2)C[C@H](O)C1` [Compound 21, 2-(3-((1s,3s)-3-hydroxy-1-(4-methyl-4H-1,2,4-triazol-3-yl)cyclobutyl)phenyl)-6-(((1-methylcyclobutyl)amino)methyl)-4-(trifluoromethyl)isoindolin-1-one]: at Cbl-b, 18 nM corresponded to half-maximal inhibition (IC50) and the “fold-selectivity (Cbl-b over C-cbl)” value is listed as “(2.3x)”. The IC50 at c-Cbl came out at 41 nM. Besides, in assay [1], the Fold of selectivity was determined as 5.3× and binding was put at a Kd of 4.1 nM. Binding at c-Cbl (residues 47-435) was characterised by a dissociation constant (Kd) of 22 nM.
With `Cn1cnnc1[C@]1(c2cccc(N3Cc4c(cc(CNC5(C)CCC5)cc4C(F)(F)F)C3=O)c2)C[C@@H](C#N)C1` [Compound 24, (1r,3r)-3-(4-methyl-4H-1,2,4-triazol-3-yl)-3-(3-(6-(((1-methylcyclobutyl)amino)methyl)-1-oxo-4-(trifluoromethyl)isoindolin-2-yl)phenyl)cyclobutanecarbonitrile], on Cbl-b, the IC50 stood at 13 nM and the “fold-selectivity (Cbl-b over C-cbl)” value is listed as “(1.8x)”. Further, inhibition at c-Cbl was half-maximal at 23 nM (IC50). Further, in assay [1], the Fold of selectivity stood at 8.4× and the affinity, expressed as Kd, was 1.7 nM. At c-Cbl (residues 47-435), this compound yielded a dissociation constant (Kd) of 15 nM.
With `Cn1cnnc1[C@]1(c2cccc(N3Cc4c(cc(CNC5(C)CCC5)cc4C(F)(F)F)C3=O)c2)C[C@H](C#N)C1` [Compound 25, (1s,3s)-3-(4-methyl-4H-1,2,4-triazol-3-yl)-3-(3-(6-(((1-methylcyclobutyl)amino)methyl)-1-oxo-4-(trifluoromethyl)isoindolin-2-yl)phenyl)cyclobutanecarbonitrile], at Cbl-b, the half-maximal inhibitory concentration (IC50) came to 14 nM and the “fold-selectivity (Cbl-b over C-cbl)” value was “(2.6x)”. On c-Cbl, half-maximal inhibition (IC50) required 36 nM. Moreover, in assay [1], the Fold of selectivity was determined as 5.4× and the affinity, expressed as Kd, was 4 nM. On c-Cbl (residues 47-435), this compound yielded a Kd of 22 nM.
Take `Cn1cnnc1[C@]1(c2cccc(N3Cc4c(cc(CNC5(C)CCC5)cc4C(F)(F)F)C3=O)c2)C[C@](C)(O)C1` [Compound 26, 2-(3-((1s,3s)-3-hydroxy-3-methyl-1-(4-methyl-4H-1,2,4-triazol-3-yl)cyclobutyl)phenyl)-6-(((1-methylcyclobutyl)amino)methyl)-4-(trifluoromethyl)isoindolin-1-one]: the figures for the IC50 against Cbl-b and at c-Cbl were 30 nM and 99 nM, respectively. On Cbl-b, the “fold-selectivity (Cbl-b over C-cbl)” value is “(3.3x)”. This compound gave a Fold of selectivity in assay [1] of 9.0×. Also, the Kd in assay [1] amounted to 10 nM; at c-Cbl (residues 47-435) it was 90 nM.
For `Cn1cnnc1[C@]1(c2cccc(N3Cc4c(cc(CNC5(C)CCC5)cc4C(F)(F)F)C3=O)c2)C[C@@](C)(O)C1` [Compound 27, 2-(3-((1r,3r)-3-hydroxy-3-methyl-1-(4-methyl-4H-1,2,4-triazol-3-yl)cyclobutyl)phenyl)-6-(((1-methylcyclobutyl)amino)methyl)-4-(trifluoromethyl)isoindolin-1-one], on Cbl-b, half-maximal inhibition (IC50) required 170 nM and the “fold-selectivity (Cbl-b over C-cbl)” value is “(3.0x)”. The compound further came in with an IC50 against c-Cbl of 510 nM. In assay [1], this compound yielded a Fold of selectivity of 7.2× and a dissociation constant Kd of 60 nM. In addition, at c-Cbl (residues 47-435), the Kd was determined as 430 nM.
For `CO[C@]1(C)C[C@@](c2cccc(N3Cc4c(cc(CNC5(C)CCC5)cc4C(F)(F)F)C3=O)c2)(c2nncn2C)C1` [Compound 28, 2-(3-((1r,3r)-3-methoxy-3-methyl-1-(4-methyl-4H-1,2,4-triazol-3-yl)cyclobutyl)phenyl)-6-(((1-methylcyclobutyl)amino)methyl)-4-(trifluoromethyl)isoindolin-1-one], at Cbl-b, half-maximal inhibition (IC50) required 13 nM and the “fold-selectivity (Cbl-b over C-cbl)” value is given as “(2.7x)”. On c-Cbl, this compound showed a concentration for half-maximal inhibition (IC50) of 35 nM. In assay [1], the Fold of selectivity worked out at 5.5× and binding was characterised by a dissociation constant (Kd) of 2.5 nM. Binding at c-Cbl (residues 47-435) was characterised by a dissociation constant (Kd) of 13 nM.
Take `Cn1cnnc1[C@]1(c2cccc(N3Cc4c(cc(CNC5(C)CCC5)cc4C(F)(F)F)C3=O)c2)C[C@](C)(F)C1` [Compound 30, 2-(3-((1s,3s)-3-fluoro-3-methyl-1-(4-methyl-4H-1,2,4-triazol-3-yl)cyclobutyl)phenyl)-6-(((1-methylcyclobutyl)amino)methyl)-4-(trifluoromethyl)isoindolin-1-one]: on Cbl-b, 17 nM corresponded to half-maximal inhibition (IC50) and the “fold-selectivity (Cbl-b over C-cbl)” value is “(1.6x)”. Also, half-maximal inhibition against c-Cbl (IC50) required 27 nM. In assay [1], the Fold of selectivity is 3.8× and the Kd was found to be 2.6 nM. On c-Cbl (residues 47-435), the Kd is 9.8 nM.
With `Cn1cnnc1[C@]1(c2cccc(N3Cc4c(cc(CNC5(C)CCC5)cc4C(F)(F)F)C3=O)c2)C[C@H](C)C1` [Compound 34, 2-(3-((1s,3s)-3-methyl-1-(4-methyl-4H-1,2,4-triazol-3-yl)cyclobutyl)phenyl)-6-(((1-methylcyclobutyl)amino)methyl)-4-(trifluoromethyl)isoindolin-1-one], the half-maximal inhibitory concentration (IC50) at Cbl-b amounted to 12 nM; against c-Cbl, 11 nM. Moreover, the “fold-selectivity (Cbl-b over C-cbl)” value on Cbl-b is “(0.94x)”. Moreover, in assay [1], the Fold of selectivity was 0.6×. Also, the Kd came to 4 nM in assay [1] and 2.3 nM on c-Cbl (residues 47-435).
For `Cn1cnnc1[C@]1(c2cccc(N3Cc4c(cc(CNC5(C)CCC5)cc4C(F)(F)F)C3=O)c2)C[C@@H](C)C1` [Compound 35, 2-(3-((1r,3r)-3-methyl-1-(4-methyl-4H-1,2,4-triazol-3-yl)cyclobutyl)phenyl)-6-(((1-methylcyclobutyl)amino)methyl)-4-(trifluoromethyl)isoindolin-1-one], at Cbl-b, the IC50 came to 9.1 nM and the “fold-selectivity (Cbl-b over C-cbl)” value is reported as “(0.97x)”. This compound displayed an IC50 against c-Cbl of 8.8 nM. For the same compound, in assay [1], the Fold of selectivity was 3.4× and the Kd is 0.5 nM. Moreover, on c-Cbl (residues 47-435), the Kd was 1.7 nM.

By IC50 is commonly meant the midpoint of a concentration-inhibition curve. Broadly, the Kd is the concentration at which binding is half-saturated. The low end stands for higher affinity, the high end for lower affinity.
